Earlier results as cited in US6964946B1, “Oral pharmaceutical compositions containing taxanes and methods of treatment employing the same” (Baker Norton Pharmaceuticals, Inc., priority 1995, dated 2005).
“Also recorded” adds a separate entry of the source.

CC(=O)O[C@H]1C(=O)[C@@]2(C)[C@H]([C@H](OC(=O)c3ccccc3)[C@]3(O)C[C@H](OC(=O)[C@H](O)[C@@H](NC(=O)c4ccccc4)c4ccccc4)C(C)=C1C3(C)C)[C@]1(OC(C)=O)CO[C@@H]1C[C@@H]2O [Paclitaxel, paclitaxel]
level at which inhibition of tubulin disassembly occurs (tubulin): about 0.1 μM; also recorded: about 85 ng/ml
level at which inhibition of protein isoprenylation occurs (protein isoprenylation): about 0.03 μM; also recorded: about 25 ng/ml
